Structures can show the parent of a compound that is named as a salt.
Columns and labels:
[1] = target: T1, Human sputum neutrophil elastase (Homo sapiens, UniProt P08246); experiment: Inhibitor IC50 against human neutrophil elastase (fluorogenic MeOSuc-AAPV-AMC substrate); assay type: biochemical; conditions: 20 min preincubation, read-out: HNE IC50
T1 construct: purchased Elastin Products Co; host or cells: human sputum (natural source)
T1 sequence (P08246 30-247 limits assumed): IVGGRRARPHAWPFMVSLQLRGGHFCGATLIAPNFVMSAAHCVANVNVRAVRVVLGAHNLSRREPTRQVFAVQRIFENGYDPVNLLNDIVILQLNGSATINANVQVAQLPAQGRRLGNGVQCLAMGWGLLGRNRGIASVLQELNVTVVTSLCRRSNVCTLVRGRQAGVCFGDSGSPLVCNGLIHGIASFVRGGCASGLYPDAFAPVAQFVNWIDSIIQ
Procedure: Determination of Inhibitor IC50 Values Against Human Neutrophil Elastase
Human sputum neutrophil elastase (Elastin Products Co.) was diluted into Assay Buffer A (200 mM Tris pH 7.4, 1 mg/ml BSA) to a working concentration of 0.55 U/ml. […] DMSO alone was used as the negative control. MeOSuc-AAPV-AMC (Bachem) substrate was dissolved in DMSO to 20 mM and further diluted to 1 mM in Assay Buffer A immediately before use. Substrate was added to the elastase assay at a final concentration of 1×10^−4 M. The reaction was allowed to proceed for 20 minutes at room temperature and then quenched with acetic acid at a final concentration of 3% (v/v). […] Fluorescence intensity versus inhibitor concentration was plotted and fit to the Hill equation to quantify IC50 values.

[2] = tested on: HNE-induced hemorrhage in the lung; experiment: Neutrophil elastase-induced lung hemorrhagic assay; assay type: in vivo; conditions: Mus musculus, iv, 10 mg/kg intravenously to male balb/c mice 10 min before intratracheal HNE, hemoglobin in BALF 3 h after HNE, vs vehicle-treated controls, read-out: % Inhibition in Murine Lung Hemorrhage Model @ 10 mg/kg
From the text: Neutrophil Elastase-Induced Lung Hemorrhagic Assay
This in vivo assay is based on estimating the amount of hemorrhage in the lung following intratracheal administration of human neutrophil elastase (HNE). Hemorrhage is quantified by measuring the concentration of hemoglobin in the bronchoalveolar lavage fluid (BALF).
DMSO or saline served as vehicle controls. Mice were anesthetized with halothane and the trachea exposed by a small incision in the neck. Ten minutes after compound administration, mice received 7.5 units/animal of HNE (Elastin Products Co.) dissolved in […] saline. Three hours after HNE instillation, the animals were euthanized with an overdose of urethane. […] Triton X-100 was added to the collected BALF at a final concentration of 0.2% (v/v) to ensure cell disruption.

Structure (SMILES): CCc1cc(OC)cc2nc(-c3cccnc3N3CC[C@H](N(C)C)C3)oc(=O)c12 (as salt: methanesulfonate) (hydrate or solvate) [Compound 132, 2-[2-((S)-3-Dimethylamino-pyrrolidin-1-yl)-pyridin-3-yl]-5-ethyl-7-methoxy-4H-benz[d][1,3]oxazin-4-one]
- melting point: 43 to 49 °C

Structure (SMILES): CCc1cc(OC)cc2nc(-c3cccnc3N3CC[C@H](N(C)C)C3)oc(=O)c12 (as salt: salt) (hydrate or solvate) [Compound 132, 2-[2-((S)-3-Dimethylamino-pyrrolidin-1-yl)-pyridin-3-yl]-5-ethyl-7-methoxy-4H-benz[d][1,3]oxazin-4-one]
- melting point: 150 to 159 °C

Structure (SMILES): Cc1cccc2nc(-c3ccccn3)oc(=O)c12 [Compound 4]
- IC50 [1]: > 150 nM
- inhibition in vivo at 10 mg/kg [2]: > 30%

Structure (SMILES): Cc1cccnc1-c1nc2cccc(Cl)c2c(=O)o1 [Compound 18]
- IC50 [1]: 16 to 60 nM
- inhibition in vivo at 10 mg/kg [2]: < 10%

Structure (SMILES): Cc1cccc2nc(-c3cccnc3Oc3ccc(Cl)cc3)oc(=O)c12 [Compound 21]
- IC50 [1]: 16 to 60 nM
- inhibition in vivo at 10 mg/kg [2]: < 10%

Structure (SMILES): O=c1oc(-c2cccnc2Oc2ccc(F)cc2)nc2cccc(Cl)c12 [Compound 26]
- IC50 [1]: 61 to 150 nM
- inhibition in vivo at 10 mg/kg [2]: 11 to 30%

Structure (SMILES): Cc1cccc2nc(-c3cccnc3Oc3ccc(F)cc3)oc(=O)c12 [Compound 36]
- IC50 [1]: 16 to 60 nM
- inhibition in vivo at 10 mg/kg [2]: > 30%

Structure (SMILES): O=c1oc(-c2cccnc2Oc2ccccc2)nc2cccc(C(F)(F)F)c12 [Compound 39]
- IC50 [1]: < 15 nM
- inhibition in vivo at 10 mg/kg [2]: > 30%

Structure (SMILES): COCCN1CCN(c2ncccc2-c2nc3cccc(C)c3c(=O)o2)CC1 [Compound 44]
- IC50 [1]: 16 to 60 nM
- inhibition in vivo at 10 mg/kg [2]: 11 to 30%

Structure (SMILES): Cc1cccc2nc(-c3cccnc3N3CCC(N(C)C)C3)oc(=O)c12 (stereo not shown) [Compound 46, 2-[2-(3-Dimethylamino-pyrrolidin-1-yl)-pyridin-3-yl]-5-methyl-4H-benz[d][1,3]oxazin-4-one]
- IC50 [1]: 61 to 150 nM
- inhibition in vivo at 10 mg/kg [2]: > 30%

Structure (SMILES): Cc1cccc2nc(-c3cccnc3N3CCCC(N(C)C)C3)oc(=O)c12 (stereo not shown) [Compound 49]
- IC50 [1]: 61 to 150 nM
- inhibition in vivo at 10 mg/kg [2]: < 10%

Structure (SMILES): Cc1cccc2nc(-c3cccnc3N3CCN(C)C(C)C3)oc(=O)c12 (stereo not shown) [Compound 50]
- IC50 [1]: > 150 nM
- inhibition in vivo at 10 mg/kg [2]: 11 to 30%

Structure (SMILES): COCCOCCOCCOCCOc1ncccc1-c1nc2cccc(C)c2c(=O)o1 [Compound 52, 2-[2-(2-{2-[2-(2-Methoxy-ethoxy)-ethoxy]-ethoxy}-ethoxy)-pyridin-3-yl]-5-methyl-4H-benz[d][1,3]oxazin-4-one]
- IC50 [1]: 16 to 60 nM
- inhibition in vivo at 10 mg/kg [2]: 11 to 30%

Structure (SMILES): Cc1cccc2nc(-c3cccnc3N(C)C3CCN(C)C3)oc(=O)c12 (stereo not shown) [Compound 53]
- IC50 [1]: 61 to 150 nM
- inhibition in vivo at 10 mg/kg [2]: 11 to 30%

Structure (SMILES): Cc1cccc2nc(-c3cccnc3N3CCN(CC4CC4)CC3)oc(=O)c12 [Compound 54]
- IC50 [1]: > 150 nM
- inhibition in vivo at 10 mg/kg [2]: > 30%

Structure (SMILES): CCc1cc(OC)cc2nc(-c3cccnc3N3CC[N+](C)(CC4OCCO4)CC3)oc(=O)c12 [Compound 231]
- IC50 [1]: < 15 nM

Structure (SMILES): CCc1cc(OC)cc2nc(-c3cccnc3N3CC[C@H]([N+](C)(C)C)C3)oc(=O)c12 [Compound 232, {1-[3-(5-Ethyl-7-methoxy-4-oxo-4H-benz[d][1,3]oxazin-2-yl)-pyridin-2-yl]-pyrrolidin-3-yl}-trimethyl-ammonium acetate]
- IC50 [1]: < 15 nM

Structure (SMILES): C#CCN1CCN(c2ncccc2-c2nc3cc(OC)cc(CC)c3c(=O)o2)CC1 [Compound 233]
- IC50 [1]: 16 to 60 nM

Structure (SMILES): C#CCN1CCN(c2ncccc2-c2nc3cccc(CC)c3c(=O)o2)CC1 [Compound 234]
- IC50 [1]: < 15 nM

Structure (SMILES): C#CCN1CCN(c2ncccc2-c2nc3cccc(C(F)(F)F)c3c(=O)o2)CC1 [Compound 235]
- IC50 [1]: < 15 nM

Structure (SMILES): CCc1cc(OC)cc2nc(-c3cccnc3N(C)CCN3CCCC3)oc(=O)c12 [Compound 237]
- IC50 [1]: < 15 nM

Structure (SMILES): CCc1cc(OC)cc2nc(-c3cccnc3N(CC)CCCN3CCOCC3)oc(=O)c12 [Compound 238]
- IC50 [1]: < 15 nM

Structure (SMILES): CCc1cc(OC)cc2nc(-c3cccnc3N(C)CCN(C)C)oc(=O)c12 [Compound 239]
- IC50 [1]: < 15 nM

Structure (SMILES): CCc1cc(OC)cc2nc(-c3cccnc3N3CCN(c4cccnc4)CC3)oc(=O)c12 [Compound 240]
- IC50 [1]: < 15 nM

Structure (SMILES): CCc1cc(OC)cc2nc(-c3cccnc3N(C)CCCN(C)C)oc(=O)c12 [Compound 241]
- IC50 [1]: < 15 nM

Structure (SMILES): CCc1cc(OC)cc2nc(-c3cccnc3N(C)CC3CCN(C)CC3)oc(=O)c12 [Compound 242]
- IC50 [1]: < 15 nM

Structure (SMILES): CCc1cc(OC)cc2nc(-c3cccnc3N3CCCC(CN4CCOCC4)C3)oc(=O)c12 (stereo not shown) [Compound 243]
- IC50 [1]: 16 to 60 nM

Structure (SMILES): CCc1cc(OC)cc2nc(-c3cccnc3N(C)CC3CCN(C)C3)oc(=O)c12 (stereo not shown) [Compound 244]
- IC50 [1]: < 15 nM

Structure (SMILES): CCc1cc(OC)cc2nc(-c3cccnc3N3CCC(CN4CCOCC4)CC3)oc(=O)c12 [Compound 245]
- IC50 [1]: < 15 nM

Structure (SMILES): CCc1cc(OC)cc2nc(-c3cccnc3N3CCC(CN(C)C)CC3)oc(=O)c12 [Compound 246]
- IC50 [1]: 16 to 60 nM

Structure (SMILES): CCc1cc(OC)cc2nc(-c3cccnc3N3CCC(CCN4CCOCC4)CC3)oc(=O)c12 [Compound 247]
- IC50 [1]: < 15 nM

Structure (SMILES): CCc1cc(OC)cc2nc(-c3cccnc3N3CCC(CCN(C)C)CC3)oc(=O)c12 [Compound 248]
- IC50 [1]: < 15 nM

Structure (SMILES): CCc1cc(OC)cc2nc(-c3cccnc3N3CCN(c4nccs4)CC3)oc(=O)c12 [Compound 250]
- IC50 [1]: < 15 nM

Structure (SMILES): CCc1cc(OC)cc2nc(-c3cccnc3N3CCC(N4CCOCC4)CC3)oc(=O)c12 [Compound 251]
- IC50 [1]: < 15 nM

Structure (SMILES): CCc1cc(OC)cc2nc(-c3cccnc3N3CCN(c4ccncc4)CC3)oc(=O)c12 [Compound 252]
- IC50 [1]: < 15 nM

Structure (SMILES): CCc1cc(OC)cc2nc(-c3cccnc3N3CCN(c4ccccn4)CC3)oc(=O)c12 [Compound 253]
- IC50 [1]: < 15 nM

Structure (SMILES): CCc1cc(OC)cc2nc(-c3cccnc3N3CC4CC3CN4CC)oc(=O)c12 (stereo not shown) [Compound 254]
- IC50 [1]: 16 to 60 nM

Structure (SMILES): CCc1cc(OC)cc2nc(-c3cccnc3N3CC4(C)CN(C)CC(C)(C3)C4O)oc(=O)c12 (stereo not shown) [Compound 255]
- IC50 [1]: < 15 nM

Structure (SMILES): CCc1cc(OC)cc2nc(-c3cccnc3N3CCC(CCN4CCCC4)CC3)oc(=O)c12 [Compound 257]
- IC50 [1]: < 15 nM

Structure (SMILES): CCc1cc(OC)cc2nc(-c3cccnc3N3C[C@H](CNC4CC4)[C@H](F)C3)oc(=O)c12 [Compound 258]
- IC50 [1]: 16 to 60 nM

Structure (SMILES): CCc1cc(OC)cc2nc(-c3cccnc3N3C[C@@H](CNC4CC4)[C@H](C)C3)oc(=O)c12 [Compound 259]
- IC50 [1]: 16 to 60 nM

Structure (SMILES): CCc1cc(OC)cc2nc(-c3cccnc3N3C[C@H](CNC4CC4)[C@@H](C)C3)oc(=O)c12 [Compound 260]
- IC50 [1]: 16 to 60 nM

Structure (SMILES): CCc1cc(OC)cc2nc(-c3cccnc3N3CC[C@H](N4CCNC(=O)C4)C3)oc(=O)c12 [Compound 261]
- IC50 [1]: < 15 nM

Structure (SMILES): CCc1cc(OC)cc2nc(-c3cccnc3N3CC[C@H](N4CCOCC4)C3)oc(=O)c12 [Compound 262]
- IC50 [1]: < 15 nM

Structure (SMILES): CCc1cc(OC)cc2nc(-c3cccnc3N3CC[C@H](N(CCO)CCO)C3)oc(=O)c12 [Compound 263]
- IC50 [1]: < 15 nM

Structure (SMILES): CCc1cc(OC)cc2nc(-c3cccnc3N3CC[C@H](N4CCS(=O)(=O)CC4)C3)oc(=O)c12 [Compound 264]
- IC50 [1]: < 15 nM

Structure (SMILES): CCc1cc(OC)cc2nc(-c3cccnc3N3CC[C@@H](N(C)CCOC)C3)oc(=O)c12 [Compound 265]
- IC50 [1]: < 15 nM

Structure (SMILES): CCc1cc(OC)cc2nc(-c3cccnc3N3CC[C@@H](N4CCNC(=O)C4)C3)oc(=O)c12 [Compound 266]
- IC50 [1]: < 15 nM

Structure (SMILES): CCc1cc(OC)cc2nc(-c3cccnc3N3CC[C@@H](N4CCOCC4)C3)oc(=O)c12 [Compound 267]
- IC50 [1]: < 15 nM

Structure (SMILES): CCc1cc(OC)cc2nc(-c3cccnc3N3CC[C@@H](N(CCO)CCO)C3)oc(=O)c12 [Compound 268]
- IC50 [1]: < 15 nM

Structure (SMILES): CCc1cc(OC)cc2nc(-c3cccnc3N3CC[C@@H](N4CCS(=O)(=O)CC4)C3)oc(=O)c12 [Compound 269]
- IC50 [1]: < 15 nM

Structure (SMILES): CCc1cc(OC)cc2nc(-c3cccnc3N3CC[C@@H](N(C)CCO)C3)oc(=O)c12 [Compound 270]
- IC50 [1]: < 15 nM

Structure (SMILES): CCc1cc(OC)cc2nc(-c3cccnc3N3CCC[C@H]3CN3CCCC3)oc(=O)c12 [Compound 271]
- IC50 [1]: < 15 nM

Structure (SMILES): CCc1cc(OC)cc2nc(-c3cccnc3N3CCC(CN4CCCC4)CC3)oc(=O)c12 [Compound 272]
- IC50 [1]: < 15 nM

Structure (SMILES): CCc1cc(OC)cc2nc(-c3cccnc3N3CCC(C)(C(=O)N4CCN(C)CC4)CC3)oc(=O)c12 [Compound 273]
- IC50 [1]: 16 to 60 nM

Structure (SMILES): CCc1cc(OC)cc2nc(-c3cccnc3N3CCC(C)(C(=O)NCCN(CC)CC)CC3)oc(=O)c12 [Compound 274]
- IC50 [1]: < 15 nM

Structure (SMILES): CCc1cc(OC)cc2nc(-c3cccnc3N3CCC(c4c[nH]cn4)CC3)oc(=O)c12 [Compound 275]
- IC50 [1]: < 15 nM

Source: US7879846B2, “Serine hydrolase inhibitors” (Kyorin Pharmaceutical Co.., Ltd., priority 2006, dated 2011)
